Six compounds from ChEMBL document CHEMBL5390279, “Hydrolytic Activity of Mitochondrial F1FO-ATP Synthase as a Target for Myocardial Ischemia-Reperfusion Injury: Discovery and In Vitro and In Vivo Evaluation of Novel Inhibitors” (J Med Chem, 2023) can be followed below.

SMILES strings stand for the structures. The source made the active and inactive calls. The rule behind the calls is not given here.

Data set [1] is described as follows: Inhibition of mouse heart mitochondrial F0F1-ATP synthase hydrolytic activity incubated for 10 mins by microplate reader analysis. The format is mitochondria, Mitochondria.
The species entered for data set [2] is Mus musculus. Kind of data set: Inhibition of mouse heart mitochondrial F0F1-ATP synthase hydrolytic activity at 200 uM incubated for 10 mins by microplate reader analysis. The conditions noted are these: Mitochondria.
The subject of data set [3] is H9c2. The data set is described as follows: Induction of mitochondrial membrane potential loss in rat H9c2 cells assessed as increase in fluorescence intensity at 50 to 100 uM in presence of rotenone by TMRM dye based assay. Type of data set: cell-based. The following applies: dose 50-100 µM.
The test system of data set [4] is H9c2. Kind of data set: Induction of mitochondrial membrane potential loss in rat H9c2 cells assessed as increase in fluorescence intensity at 0.1 to 100 uM by TMRM dye based assay. Type of data set: cell-based. The following applies: dose 0.1-100 µM.
The test system of data set [5] is H9c2. The data set is described as follows: Cytotoxicity against rat H9c2 cells assessed as reduction in cell survival at 0.1 to 100 uM incubated for 24 hrs by MTT assay. Type of data set: toxicity, cell-based. The following applies: h9c2, 24 h, dose 0.1-100 µM.
Data set [6] deals with H9c2. Kind of data set: Cytotoxicity against rat H9c2 cells assessed as reduction in cell survival at 10 to 100 uM incubated for 24 hrs by MTT assay. The conditions noted are these: h9c2, 24 h, dose 10-100 µM. The format is toxicity, cell-based.
Data set [7] has as its system Mus musculus. Kind of data set: Cardioprotective activity against cardiac ischemia/reperfusion induced C57BL/6J mouse model assessed as reduction in cardiac infarct size at 3.5 mg/kg, iv prior to 5 mins of myocardial ischemia and 2 hrs of reperfusion (Rvb= 45.4 +/- 1.8 %). The format is functional. Details: scale not given: the % may be the effect or the level left. The following applies: time 125 min, 2.083 h.

The subject of data set [8] is Mus musculus. The data set is described as follows: Cardioprotective activity against cardiac ischemia/reperfusion induced C57BL/6J mouse model assessed as reduction in cardiac infarct size at 5 mg/kg, iv measured after 5 mins of myocardial ischemia and 2 hrs of reperfusion (Rvb= 45 +/- 2.2 %). The following applies: time 125 min, 2.083 h. The format is functional. Also noted: scale not given: the % may be the effect or the level left.

Data set [9] has as its system Mus musculus. The data set is described as follows: Cardioprotective activity against cardiac ischemia/reperfusion induced C57BL/6J mouse model assessed as reduction in cardiac infarct size at 5 mg/kg, iv measured after 25 mins of myocardial ischemia and 2 hrs of reperfusion (Rvb= 47.8 +/- 3.4 %). The format is functional. Also noted: scale not given: the % may be the effect or the level left. The conditions noted are these: time 145 min, 2.417 h.

Data set [10] deals with Mus musculus. Kind of data set: Cardioprotective activity against cardiac ischemia/reperfusion induced C57BL/6J mouse model assessed as increase in ATP level at 3.5 mg/kg, iv preincubated under ischemic condition for 30 mins followed by compound addition for 5 mins and subsequent incubation under reperfusion for 10 mins. Type of data set: functional, organism-based. The conditions noted are these: time 15.0 min.

In data set [11] the test system is Mus musculus. Kind of data set: Cardioprotective activity against cardiac ischemia/reperfusion induced C57BL/6J mouse model assessed as increase in Akt phosphorylation at 3.5 mg/kg, iv preincubated under ischemic condition for 30 mins followed by compound addition for 5 mins and subsequent incubation under reperfusion for 10 mins by Western blot analysis. The format is functional, organism-based. The following applies: time 15.0 min.

The test system of data set [12] is Mus musculus. Kind of data set: Cardioprotective activity against cardiac ischemia/reperfusion induced C57BL/6J mouse model assessed as increase in ERK1/2 phosphorylation at 3.5 mg/kg, iv preincubated under ischemic condition for 30 mins followed by compound addition for 5 mins and subsequent incubation under reperfusion for 10 mins by Western blot analysis. The format is functional, organism-based. The conditions noted are these: time 15.0 min.

The test system of data set [13] is Mus musculus. Kind of data set: Cardioprotective activity against cardiac ischemia/reperfusion induced C57BL/6J mouse model assessed as increase in GSK3beta phosphorylation at S9 fraction at 3.5 mg/kg, iv preincubated under ischemic condition for 30 mins followed by compound addition for 5 mins and subsequent incubation under reperfusion for 10 mins by Western blot analysis. Type of data set: functional, organism-based. The following applies: time 15.0 min.

For data set [14], the system named is Mus musculus. The data set is described as follows: Cardioprotective activity against cardiac ischemia/reperfusion induced C57BL/6J mouse model assessed as effect on Akt level at 3.5 mg/kg, iv preincubated under ischemic condition for 30 mins followed by compound addition for 5 mins and subsequent incubation under reperfusion for 10 mins by Western blot analysis. The format is functional, organism-based. The following applies: time 15.0 min.

Data set [15] relates to Mus musculus. Kind of data set: Cardioprotective activity against cardiac ischemia/reperfusion induced C57BL/6J mouse model assessed as effect on ERK1/2 level at 3.5 mg/kg, iv preincubated under ischemic condition for 30 mins followed by compound addition for 5 mins and subsequent incubation under reperfusion for 10 mins by Western blot analysis. Type of data set: functional, organism-based. The following applies: time 15.0 min.

Data set [16] relates to Mus musculus. Kind of data set: Cardioprotective activity against cardiac ischemia/reperfusion induced C57BL/6J mouse model assessed as effect on GSK3beta level at 3.5 mg/kg, iv preincubated under ischemic condition for 30 mins followed by compound addition for 5 mins and subsequent incubation under reperfusion for 10 mins by Western blot analysis. Type of data set: functional, organism-based. The following applies: time 15.0 min.

Data set [17] relates to Mus musculus. The data set is described as follows: Cardioprotective activity against cardiac ischemia/reperfusion induced C57BL/6J mouse model assessed as increase in Bcl-XL expression at 3.5 mg/kg, iv preincubated under ischemic condition for 30 mins followed by compound addition for 5 mins and subsequent incubation under reperfusion for 10 mins by Western blot analysis. The conditions noted are these: time 15.0 min. The format is functional, organism-based.

The subject of data set [18] is Mus musculus. Kind of data set: Cardioprotective activity against cardiac ischemia/reperfusion induced C57BL/6J mouse model assessed as increase in Bax expression at 3.5 mg/kg, iv preincubated under ischemic condition for 30 mins followed by compound addition for 5 mins and subsequent incubation under reperfusion for 10 mins by Western blot analysis. The format is functional, organism-based. The following applies: time 15.0 min.

The subject of data set [19] is Mus musculus. The data set is described as follows: Cardioprotective activity against cardiac ischemia/reperfusion induced C57BL/6J mouse model assessed as increase in cleaved caspase-3 expression at 3.5 mg/kg, iv preincubated under ischemic condition for 30 mins followed by compound addition for 5 mins and subsequent incubation under reperfusion for 10 mins by Western blot analysis. Type of data set: functional, organism-based. The following applies: time 15.0 min.

The species entered for data set [20] is Mus musculus. Kind of data set: Inhibition of mouse heart mitochondrial F0F1-ATP synthase hydrolytic activity at 200 uM incubated for 10 mins by microplate reader analysis relative to control. The following applies: Mitochondria.
In data set [21] the test system is H9c2. Kind of data set: Induction of mitochondrial membrane potential loss in rat H9c2 cells assessed as increase in fluorescence intensity at 100 uM in presence of rotenone by TMRM dye based assay. The format is cell-based.
The subject of data set [22] is H9c2. Kind of data set: Induction of mitochondrial membrane potential loss in rat H9c2 cells assessed as increase in fluorescence intensity at 50 uM in presence of rotenone by TMRM dye based assay. The format is cell-based.
Data set [23] has as its system H9c2. Kind of data set: Induction of mitochondrial membrane potential loss in rat H9c2 cells assessed as increase in fluorescence intensity at 10 uM in presence of rotenone by TMRM dye based assay. Type of data set: cell-based.
The test system of data set [24] is H9c2. Kind of data set: Cytotoxicity against rat H9c2 cells assessed as reduction in cell viability at 100 uM incubated for 24 hrs by MTT assay. The conditions noted are these: h9c2, 24 h. The format is toxicity, cell-based.
Data set [25] relates to H9c2. The data set is described as follows: Cytotoxicity against rat H9c2 cells assessed as reduction in cell viability at 50 uM incubated for 24 hrs by MTT assay. The format is toxicity, cell-based. The following applies: h9c2, 24 h.
Data set [26] has as its system H9c2. The data set is described as follows: Induction of mitochondrial membrane potential loss in rat H9c2 cells assessed as increase in fluorescence intensity at 10 uM by TMRM dye based assay. Type of data set: cell-based.
In data set [27] the test system is H9c2. Kind of data set: Cytotoxicity against rat H9c2 cells assessed as reduction in cell survival at 100 uM incubated for 24 hrs by MTT assay. The following applies: h9c2, 24 h. The format is toxicity, cell-based.
For data set [28], the system named is H9c2. Kind of data set: Cytotoxicity against rat H9c2 cells assessed as reduction in cell survival at 10 to 50 uM incubated for 24 hrs by MTT assay. Type of data set: toxicity, cell-based. The following applies: h9c2, 24 h, dose 10-50 µM.
The species named for data set [29] is Mus musculus. The data set is described as follows: Effect on mPTP opening in C57BL6 mouse heart mitochondria assessed as number of calcium pulses by measuring green-5N fluorescence intensity at 10 to 1000 uM by calcium retention capacity assay. The conditions noted are these: dose 10-1000 µM.
The species entered for data set [30] is Mus musculus. Kind of data set: Effect on mPTP opening in C57BL6 mouse heart mitochondria assessed as number of calcium pulses by measuring green-5N fluorescence intensity at 10 to 1000 uM in presence of cyclosporin A by calcium retention capacity assay. The conditions noted are these: dose 10-1000 µM.
The subject of data set [31] is H9c2. The data set is described as follows: Induction of mitochondrial membrane potential loss in rat H9c2 cells assessed as increase in fluorescence intensity at 10 to 100 uM in presence of rotenone by TMRM dye based assay. Type of data set: cell-based. The following applies: dose 10-100 µM.
The subject of data set [32] is H9c2. Kind of data set: Cytotoxicity against rat H9c2 cells assessed as reduction in cell viability at 50 to 100 uM incubated for 24 hrs by MTT assay. The format is toxicity, cell-based. The conditions noted are these: h9c2, 24 h, dose 50-100 µM.
Data set [33] relates to H9c2. The data set is described as follows: Cytotoxicity against rat H9c2 cells assessed as reduction in cell viability at 10 to 100 uM incubated for 24 hrs by MTT assay. The format is toxicity, cell-based. The conditions noted are these: h9c2, 24 h, dose 10-100 µM.

As for `Oc1ccc(/C=C/c2cc(O)cc(O)c2)cc1` [RESVERATROL], the midpoint of inhibition in data set [1], the IC50, lay at 65.6 µM.

The compound `COc1ccc(Cn2nc(-c3ccccc3)c3cc(Nc4ccc(N5CCN(C)CC5)cc4)nc(N4CCOCC4)c32)cc1` gave a half-maximal inhibitory concentration (IC50) in data set [1] of 98.5 µM. The inhibition entry in the data set listed under Mus musculus [2] was “Active”. Also, the result with H9c2 [3], with Mus musculus [10], in the data set with Mus musculus [11], in the data set on Mus musculus [12], with Mus musculus [13] and in the data set with Mus musculus [14] was Active. Also, the result with Mus musculus [15], with Mus musculus [16], with Mus musculus [17], with Mus musculus [18] and in the data set with Mus musculus [19] was Active. In addition, the result in the data set with H9c2 [4] was inactive. The Activity result in the data set with H9c2 [5] is given as “Non-Toxic”; in the data set with H9c2 [6] it was “Non-Toxic”; in the data set on Mus musculus [7], 25.6%; with Mus musculus [8], 23.1%; in the data set on Mus musculus [9], 40.4%.

`Oc1ccc(/C=C/c2c3c(cc4c2[C@H](c2cc(O)cc(O)c2)[C@@H](c2ccc(O)cc2)O4)O[C@H](c2ccc(O)cc2)[C@H]3c2cc(O)cc(O)c2)cc1` came in with a 50% inhibitory concentration (IC50) in data set [1] of 162 µM. This compound registered an inhibition in the data set listed under Mus musculus [20] of 50%.

In data set [1], `COc1ccc(Cn2nc(-c3ccccc3)c3cc(Cl)nc(N4CCNCC4)c32)cc1` yielded an IC50 of 151 µM. This compound also yielded an inhibition in the data set filed under Mus musculus [20] of 50%. Moreover, the result in the data set on H9c2 [21] and in the data set on H9c2 [22] was Active. Besides, the result in the data set on H9c2 [23], in the data set on H9c2 [26], in the data set listed under Mus musculus [29] and in the data set listed under Mus musculus [30] was inactive. Also, the Activity entry is on record as “Toxic” with H9c2 [24], “Non-Toxic” in the data set on H9c2 [25], “Toxic” in the data set with H9c2 [27] and “Non-Toxic” in the data set on H9c2 [28].

Take `COc1ccc(Cn2nc(-c3cccc(F)c3)c3cc(Nc4ccc(N5CCN(C)CC5)cc4)nc(N4CCN(C)CC4)c32)cc1`: the IC50 in [1] was 164 µM. Besides, the inhibition entry in the data set filed under Mus musculus [2] was “Active”. In addition, the result in the data set on H9c2 [31] was Active. The Activity result in the data set with H9c2 [32] is listed as “Toxic”; in the data set on H9c2 [33] it was “Non-Toxic”.

`Oc1ccc(/C=C/c2cc(O)cc3c2[C@H](c2cc(O)cc(O)c2)[C@@H](c2ccc(O)cc2)O3)cc1` had a half-maximal inhibitory concentration (IC50) in [1] of 756 µM.
